Data published in paper PMC11061835, “Elucidating the Mechanism of Metabolism of Cannabichromene by Human Cytochrome P450s” (Journal of Natural Products, 2024).
Values joined by “and” are separate entries in the source; they are usually repeats but may differ in a detail not shown here. Identical values can stand only once.

Assays:
TRPV2 = tested on: TRPV2; parameters: method as in PMID 30697147; settings: read-out: agonism toward TRPV2; cited from earlier work
CYP3A4 = CYP3A4 (Homo sapiens, UniProt P08684); test: Spectroscopic titration (Soret shift), CYP3A4; assay type: binding; parameters: His-tag; made in house; host or cells: E. coli DH-5α with pTGro7 plasmid; settings: CYP3A4, absence of CPR
Protocol: CBC binding to various CYPs was determined by analyzing the Soret shift from ∼417 to ∼390 nm. CBC (stock 10 mM) was dissolved in ethanol and titrated with different CYPs at room temperature. Buffer-exchanged CYP2J2, CYP2D6, CYP3A4, and CYP2C8 (concentrations of proteins were kept between 4 and 5 μM) were dissolved in 0.1 M phosphate buffer (pH = 7.4), and initial spectra were recorded from 200 to 800 nm with a prominent peak at 417 nm. The concentration of CBC was varied from 0 to 100 μM keeping the final concentration of substrate in EtOH not more than 1% in cuvette. 0–4 μL of stock CBC was added using a Hamilton syringe in both the sample and blank cuvettes. The mixture was incubated for 5 min at 37 °C, and absorbance spectra were recorded using a Cary Bio 300 UV–vis spectrophotometer (Agilent Technologies, Santa Clara, CA). To eliminate the background absorbance, we derived the final spectra by […].

CYP2J2 = target: T1, CYP2J2 (Homo sapiens, UniProt P51589); test: CBC metabolism by CYP2J2; assay type: in vitro ADME
T1 construct: His-tag; made in house; host or cells: E. coli DH-5α with pTGro7 plasmid
T1 sequence (P51589 1-502): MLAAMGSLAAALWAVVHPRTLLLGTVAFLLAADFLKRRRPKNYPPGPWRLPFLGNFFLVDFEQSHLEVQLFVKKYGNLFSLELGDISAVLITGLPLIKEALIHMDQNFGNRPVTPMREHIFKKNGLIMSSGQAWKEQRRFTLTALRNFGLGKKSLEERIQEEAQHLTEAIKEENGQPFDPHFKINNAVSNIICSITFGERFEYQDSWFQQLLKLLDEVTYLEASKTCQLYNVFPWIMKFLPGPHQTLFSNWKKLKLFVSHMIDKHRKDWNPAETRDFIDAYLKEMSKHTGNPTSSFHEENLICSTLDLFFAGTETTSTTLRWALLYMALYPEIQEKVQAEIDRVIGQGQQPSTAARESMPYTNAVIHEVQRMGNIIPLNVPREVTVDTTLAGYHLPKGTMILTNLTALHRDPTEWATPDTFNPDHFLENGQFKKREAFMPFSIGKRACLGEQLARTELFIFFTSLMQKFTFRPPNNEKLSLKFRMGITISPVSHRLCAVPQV
Protocol: (§1) To study the kinetics of CBC metabolism, concentration dependent metabolism of CBC was carried out in the presence of various CYPs using the following procedure. CYP2J2, CYP2C8, CYP2D6, CYP2C9, and CYP3A4 (final concentration 0.5 μM) were initially dissolved in lipid containing POPC:POPS (8:2 v/v) followed by addition of CPR (final concentration 0.6 μM) in 0.1 M potassium phosphate buffer (pH 7.4). CBC (5–80 μM) was added and incubated at 37 °C for 10 min. The reaction was triggered by NADPH and extracted using the exact sample protocol as mentioned in the HLM section.
(§2) Samples were analyzed with the 5500 QTRAP LC/MS/MS system (Sciex, Framingham, MA) in the Metabolomics Lab of Roy J. Carver Biotechnology Center, University of Illinois at Urbana–Champaign. Software Analyst 1.7.1 was used for data acquisition and analysis. The 1200 series HPLC system (Agilent Technologies, Santa Clara, CA) includes a degasser, an autosampler, and a binary pump. […] Multiple reaction monitoring (MRM) was used for quantitation: CBC m/z 315.1 → m/z 135.0; 1-acetoxy-6′,7′-dihydroxy-CBC (JM-I-73) m/z 349.1→ m/z 193.0; 1″-hydroxy-CBC (JM-I-66) m/z 331.1→ m/z 275.1; 6′,7′-epoxy-CBC (JM-I-27) m/z 331.1→ m/z 193.0; 7′,10′-ene-6′-hydroxy-CBC (JM-I-30) m/z 331.1→ m/z 193.0; 8′-hydroxy-CBC (JM-I-32) […]→ m/z 77.0. Internal standard EET-EA-d11 was monitored at m/z 375.2→ m/z 357.1.

CYP2D6 = CYP2D6 (Homo sapiens, UniProt P10635); test: CBC metabolism by CYP2D6; assay type: in vitro ADME; parameters: His-tag; made in house; host or cells: E. coli DH-5α with pTGro7 plasmid (CYP)
Protocol: as §1, §2

CYP2C9 = test: CBC metabolism by CYP2C9; assay type: in vitro ADME, human
Protocol: as §1, §2

Sequence of CYP3A4 (P08684 whole entry): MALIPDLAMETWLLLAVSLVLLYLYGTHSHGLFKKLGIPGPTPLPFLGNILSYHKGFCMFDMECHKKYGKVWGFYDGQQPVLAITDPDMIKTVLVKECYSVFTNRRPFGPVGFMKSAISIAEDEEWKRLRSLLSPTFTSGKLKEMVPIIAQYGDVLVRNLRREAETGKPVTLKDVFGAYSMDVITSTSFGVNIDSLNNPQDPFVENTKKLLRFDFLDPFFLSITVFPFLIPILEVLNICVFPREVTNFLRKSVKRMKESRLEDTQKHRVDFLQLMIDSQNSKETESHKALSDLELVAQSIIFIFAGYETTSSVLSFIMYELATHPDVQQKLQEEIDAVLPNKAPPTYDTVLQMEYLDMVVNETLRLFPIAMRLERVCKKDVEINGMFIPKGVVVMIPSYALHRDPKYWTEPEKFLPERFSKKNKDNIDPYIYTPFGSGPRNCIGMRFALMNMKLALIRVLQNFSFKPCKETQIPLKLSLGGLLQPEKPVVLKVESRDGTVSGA
Sequence of CYP2D6 (P10635 whole entry): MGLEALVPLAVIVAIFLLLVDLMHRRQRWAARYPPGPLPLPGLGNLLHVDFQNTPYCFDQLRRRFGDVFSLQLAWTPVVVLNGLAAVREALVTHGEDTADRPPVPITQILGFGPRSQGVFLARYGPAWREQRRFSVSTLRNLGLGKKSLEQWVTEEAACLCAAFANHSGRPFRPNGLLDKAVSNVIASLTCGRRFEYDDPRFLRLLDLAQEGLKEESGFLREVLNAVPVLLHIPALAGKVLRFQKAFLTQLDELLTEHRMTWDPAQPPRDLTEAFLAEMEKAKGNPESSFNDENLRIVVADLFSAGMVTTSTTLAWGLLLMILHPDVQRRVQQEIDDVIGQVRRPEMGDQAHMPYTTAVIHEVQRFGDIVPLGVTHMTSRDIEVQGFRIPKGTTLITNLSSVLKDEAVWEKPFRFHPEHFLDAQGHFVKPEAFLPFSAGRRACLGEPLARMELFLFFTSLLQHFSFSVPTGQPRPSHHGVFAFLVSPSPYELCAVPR
Sequence of CYP2D6 (P16435 whole entry partner): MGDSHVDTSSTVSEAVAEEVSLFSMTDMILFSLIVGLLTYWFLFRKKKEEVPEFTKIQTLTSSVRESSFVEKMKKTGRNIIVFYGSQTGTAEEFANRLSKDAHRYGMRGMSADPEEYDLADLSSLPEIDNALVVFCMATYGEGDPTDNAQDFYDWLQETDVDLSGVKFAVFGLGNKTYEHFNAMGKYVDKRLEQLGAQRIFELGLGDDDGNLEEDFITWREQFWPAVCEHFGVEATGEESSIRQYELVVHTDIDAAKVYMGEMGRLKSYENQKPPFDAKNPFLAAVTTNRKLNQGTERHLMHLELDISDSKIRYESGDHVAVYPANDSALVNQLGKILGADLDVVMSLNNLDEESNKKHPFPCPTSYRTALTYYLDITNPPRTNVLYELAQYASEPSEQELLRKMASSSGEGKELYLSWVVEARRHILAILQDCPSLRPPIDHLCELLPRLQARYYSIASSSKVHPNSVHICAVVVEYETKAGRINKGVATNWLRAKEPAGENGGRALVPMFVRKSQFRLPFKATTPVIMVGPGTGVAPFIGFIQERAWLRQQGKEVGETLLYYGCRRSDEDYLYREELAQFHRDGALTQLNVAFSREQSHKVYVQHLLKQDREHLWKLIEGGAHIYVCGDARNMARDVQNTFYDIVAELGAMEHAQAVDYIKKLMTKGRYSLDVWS

Question: For `CCCCCc1cc(O)c2c(c1)OC(C)(CCC=C(C)C)C=C2` (stereo not shown) [CBC, Cannabichromene], which EC50 (TRPV2) is on record?
Answer: < 10 µM

Question: And the “ΔAmax (spin state change due to heme perturbation)” value (CYP3A4)?
Answer: 0.11 ± 0.00 and ~0.11

Question: And the Kd (CYP3A4; read-out: Kd(app))?
Answer: 9.57 µM and ~9.5 µM

Question: With `CCCCCc1cc(O)c2c(c1)OC(C)(CC/C=C(\C)CO)C=C2` (stereo not shown) [8′-hydroxy-CBC] as the molecule, how does the “ratio of 8′-hydroxy-CBC to 6′,7′-epoxy-CBC formed” value (CYP2J2; CYP2J2, from Vmax) read?
Answer: approximately 50

Question: What about the “production of 8′-hydroxy-CBC with CYP2J2 relative to CYP2C8” value (CYP2J2; CYP2J2 vs CYP2C8) of the same molecule?
Answer: ~10 times

Question: What about the “preference for 8′-hydroxy-CBC formation compared to 6′,7′-epoxy-CBC” value (CYP2D6) of the same molecule?
Answer: 3–4 times

Question: What about the “extent of 8′-hydroxy-CBC formation relative to 6′,7′-epoxy-CBC” value (CYP2C9) of the same molecule?
Answer: approximately half
